According to patent publication US9303076B2, “Cell-penetrating peptides and uses thereof” (Hoffmann-La Roche Inc., priority 2010, dated 2016):
Entries after “also recorded” stand apart in the source; their conditions may differ.

Tested on: human Aha1 mRNA
Test: siRNA transfection screening (siAha1 vs siGL3 control, bDNA assay of Aha1/GAPDH mRNA)
Assay type: cell-based
Description: For the quantification of cellular mRNA levels bDNA (branched DNA) assays were performed which enable the detection of individual mRNA levels. To this end, a defined number of the cells to be analyzed was seeded into 96-well plates and allowed to attach over night. On the next day, the cells were transfected with siRNA.
After further 24 hours, the mRNA species were quantified using the QuantiGene Plex 2.0 assay kit according to the manufacturers instructions (Affymetrix Inc., Santa Clara, Calif., USA). In brief, cell lysates were transferred to a capture plate in the presence of a gene-specific probe set and incubated at 53° C. over night. After washing, the wells were sequentially incubated at 53° C. with an amplifier agent and an alkaline phosphatase (AP)-linked label probe with a washing step in between. Subsequently, the luminescent AP substrate dioxitane was added and incubated for 30 min at 53° C. Luminescence was assayed using an InfiniteF200 luminescence reader (Tecan Austria GmbH, Groding, Austria).
In order to analyze the potential CPPs for their ability to transfect siRNA into mammalian cells an increasing peptide concentration (from 1 μM to 20 μM) was employed along with a constant siRNA concentration (100 nM). This range of peptide concentrations was used as it had been shown that positively charged peptides such as TAT are internalized into cells in ranges up to 10 μM and remain in intracellular membrane compartments without significant egress into the cytosol (Duchardt, F. et al. (2007) Traffic 8, 848-866). […] A concentration of 10 nM siRNA is in the saturation range as determined in control experiments using the DharmaFECT transfection reagent (Dharmacon, Inc., Lafayette, Colo., USA; data not shown).
The siRNA oligonucleotides employed were directed against human Aha1 mRNA (Panaretou, B. et al. (2002) Mol. Cell 10, 1307-1318) or against luciferase mRNA as a control.
Complexes of siRNA and the respective peptides were formed in OptiMEM medium and incubated for 15 minutes at room temperature. The cells were incubated in the presence of the complexes for three hours in OptiMEM. After washing, the cells were incubated for further 21 or 45 hours in normal growth medium. Thereafter, the levels of Aha1 mRNA and a reference mRNA (i.e. GAPDH mRNA) were measured by means of a bDNA assay. These assays were performed with cells that were transfected with siAHA1 and with a control siRNA (siGL3, luciferase), respectively.
As a measure for specific RNAi, the reduction of Aha1 mRNA levels relative to GAPDH mRNA levels was compared in siAHA1-transfected cells and siGL3-transfected cells. Specific siRNA mediated transfection causes a reduction in Aha1/GAPDH mRNA values in siAhA1-compared to siGL3-transfected cells. FIG. 3 depicts the screening readout of these assays: the Aha1/GAPDH mRNA values of non-transfected control cells were set to 100% (for each assay), and the Aha1/GAPDH mRNA values of siAha1- or siGL3-transfected cells were expressed relative to that. For this normalized data set, the differences between the respective Aha1/GAPDH mRNA levels of siAha1- and siGL3-transfected cells were determined. Specific peptides caused a significant reduction in siAha1 transfection without reducing siGL3 transfections, which results in positive difference values. The more pronounced these values are, the more specific RNAi is observed (cf. FIG. 3).

“GAAEAAARVYDLGLRRLRQRRRLRRERVRA (NRTN peptide sequence; listed as Homo sapiens) [peptide derived from human neurturin]” was tested, and the “siRNA transfection activity (specific Aha1 mRNA reduction relative to GAPDH mRNA)” value (MCF7 cells, 100 nM siRNA, peptide 1 μM to 20 μM) was “even more effective reduction of Aha1 mRNA levels” and the “transfection efficacy compared with TAT / control peptides” value (NRTN: at lower non-toxic concentrations) was “higher than that of all (positive) control peptides analyzed; also recorded: efficacy even higher than TAT”.
